Results published in article PMC9444293 (Investigative Radiology, 2022).
Where two headings read alike, the source gives them in different places. Marks after values point to notes of the source that are not given here.

Legend:
[1] = Number of inner sphere water molecules; assay type: physicochemical; conditions: per Gd
[2] = r1-relaxivity at 1.41 T; assay type: physicochemical, human; conditions: for r1-Relaxivity in Human Plasma at 37°C, 1.5 T (per molecule): pH 7.4, per molecule
[3] = HPLC-ICP-MS analysis of rat urine for metabolites; assay type: in vivo; conditions: rat urine up to 6 hours after single IV 0.1 mmol Gd/kg bw
[4] = system: rat hepatocytes; experiment: Metabolism in rat hepatocytes; assay type: in vitro ADME; conditions: 2.5 μmol/L (10 μmol Gd/L), 4 hours
[5] = rat
[6] = Blood-to-plasma partition ratio; assay type: in vitro ADME; conditions: 6 human donors, 0.25 mmol Gd/L, 60 minutes, 37°C, mean ± SD
[7] = Partition coefficient; assay type: physicochemical; conditions: pH 7.4, room temperature
[8] = system: plasma proteins; experiment: Protein binding in human plasma, equilibrium dialysis; assay type: in vitro ADME; conditions: 3 μmol Gd/L, 37°C, 2 hours
[9] = r1-relaxivity at 3.0 T in human plasma; assay type: physicochemical; conditions: for r1-Relaxivity in Human Plasma at 37°C, 3.0 T (per Gd): pH 7.4, per Gd; for r1-Relaxivity in Human Plasma at 37°C, 3.0 T (per molecule): pH 7.4, per molecule
[10] = assay type: physicochemical; conditions: 37°C, pH 7.4, 21 days (3 weeks)
[11] = Viscosity of the formulation; assay type: physicochemical; conditions: formulation 0.3 mol Gd/L
[12] = Solubility in buffer solution; assay type: physicochemical; conditions: buffer 10 mM Tris-HCl, pH 7.4, room temperature (20°C), 24 hours
[13] = Osmolality of the formulation; assay type: physicochemical; conditions: formulation 0.3 mol Gd/L
[14] = assay type: physicochemical; conditions: after 3 days
[15] = system: human hepatocytes; experiment: Metabolism in human hepatocytes; assay type: in vitro ADME; conditions: 2.5 μmol/L (10 μmol Gd/L), 4 hours
[16] = IV 0.1 mmol Gd/kg bw
[17] = Nuclear magnetic relaxation dispersion; assay type: physicochemical; conditions: 37°C
[18] = system: GS9L (rat glioblastoma) brain tumors; experiment: Contrast-enhanced MRI of GS9L brain tumors in rats; assay type: in vivo; conditions: GS9L rats n = 4, 1.5 T, 5 minutes p.i., both 0.1 mmol Gd/kg bw, intraindividual
[19] = system: plasma proteins; experiment: Protein binding in rat plasma, equilibrium dialysis; assay type: in vitro ADME; conditions: 3 μmol Gd/L, 37°C, 2 hours
[20] = 7 days after single IV 0.1 mmol Gd/kg bw
[21] = 7 days after single IV 0.1 mmol Gd/kg bw, LLOQ 0.05
[22] = rat, 3-compartment model, listed as BAY 1747846

## CC(C(=O)NCC(=O)NCC(CNC(=O)CNC(=O)C(C)N1CCN(CC(=O)[O-])CCN(CC(=O)[O-])CCN(CC(=O)[O-])CC1)(CNC(=O)CNC(=O)C(C)N1CCN(CC(=O)[O-])CCN(CC(=O)[O-])CCN(CC(=O)[O-])CC1)CNC(=O)CNC(=O)C(C)N1CCN(CC(=O)[O-])CCN(CC(=O)[O-])CCN(CC(=O)[O-])CC1)N1CCN(CC(=O)[O-])CCN(CC(=O)[O-])CCN(CC(=O)[O-])CC1.[Gd+3].[Gd+3].[Gd+3].[Gd+3] (stereo not shown) [Gadoquatrane, tetragadolinium [4,10-bis(carboxylatomethyl)-7-{3,6,12,15-tetraoxo-16-[4,7,10-tris-(carboxyl-atomethyl)-1,4,7,10-tetraazacyclododecan-1-yl]-9,9-bis({[({2-[4,7,10-tris-(carboxylatomethyl)-1,4,7,10-tetraazacyclododecan-1-yl]propanoyl}amino)acetyl]-amino}methyl)-4,7,11,14-tetraazahepta-decan-2-yl}-1,4,7,10-tetraazacyclododecan-1-yl]acetate]
[1]
  No. Inner Sphere Water Molecules (q): q = 1
[1]; listed as gadoquatrane
  No. Inner Sphere Water Molecules (q): 1
[2]; 60 MHz (1.41 T), 37°C, pH 7.4, per Gd, mean ± SD, n = 6 batches
  r1-Relaxivity in Human Plasma at 37°C, 1.5 T (per Gd): 11.8 ± 0.3 mM⁻¹ s⁻¹
[2]; 60 MHz (1.41 T), 37°C
  r1-Relaxivity in Human Plasma at 37°C, 1.5 T (per molecule): 47.2 ± 1.0 mM⁻¹ s⁻¹
[2]; 60 MHz (1.41 T), 37°C, listed as gadoquatrane
  r1-Relaxivity in Human Plasma at 37°C, 1.5 T (per molecule): 47.2 mM⁻¹ s⁻¹
[2]; human plasma, per Gd, vs established (m)GBCAs
  r1-relaxivity in human plasma, fold higher per Gd compared with established GBCAs: more than 2 fold
[3]
  Metabolic stability / formation of metabolites in urine: high metabolic stability and no hint of formation of metabolites
[4]
  In vitro uptake or metabolic degradation in hepatocytes: No in vitro uptake or metabolic degradation
[5]; [20]
  Gadolinium concentration, Bone marrow: 0.413 ± 0.048 nmol Gd/g wet tissue
  Gadolinium concentration, Carcass: 0.693 ± 0.126 nmol Gd/g wet tissue
  Gadolinium concentration, Heart: 0.133 ± 0.014 nmol Gd/g wet tissue
  Gadolinium concentration, Intestine: 0.316 ± 0.120 nmol Gd/g wet tissue
  Gadolinium concentration, Kidney: 20.3 ± 1.37 nmol Gd/g wet tissue
  Gadolinium concentration, Liver: 0.564 ± 0.065 nmol Gd/g wet tissue
  Gadolinium concentration, Lung: 0.359 ± 0.024 nmol Gd/g wet tissue
  Gadolinium concentration, Mesenterial lymph nodes: 1.20 ± 0.336 nmol Gd/g wet tissue
  Gadolinium concentration, Muscle: 0.119 ± 0.021 nmol Gd/g wet tissue
  Gadolinium concentration, Skin: 0.271 ± 0.044 nmol Gd/g wet tissue
  Gadolinium concentration, Spleen: 0.654 ± 0.175 nmol Gd/g wet tissue
  Gadolinium concentration, Stomach: 0.182 ± 0.023 nmol Gd/g wet tissue
[5]; [21]
  Gadolinium concentration, Blood: <0.05* nmol Gd/g wet tissue
  Gadolinium concentration, Brain: <0.08‡ nmol Gd/g wet tissue
[5]; femur, 7 days after single IV 0.1 mmol Gd/kg bw
  Gadolinium concentration, Bone: 0.470 ± 0.201 nmol Gd/g wet tissue
[5]; in vivo, iv
  Amount of Gd recovered in Feces, 0–5 d: 1.35% ± 0.6%
  Amount of Gd recovered in Urine, 0–1 d: 96.4% ± 3.8%
  Amount of Gd recovered in Urine, 0–5 d: 96.9% ± 3.7%
  Total recovery of Gd, 0–7 d: 98.8% ± 6.2%
[5]; single IV 0.1 mmol Gd/kg bw
  Excreted within 7 days: > 99 % of the injected dose
[6]
  Blood-to-plasma ratio: 0.62 ± 0.06
[7]
  Log P (1-Butanol/Buffer): −4.32
[8]
  Free fraction in plasma (fraction unbound): 96%
[9]
  r1-Relaxivity in Human Plasma at 37°C, 3.0 T (per Gd): 10.5 ± 0.3 mM⁻¹ s⁻¹
  r1-Relaxivity in Human Plasma at 37°C, 3.0 T (per molecule): 41.9 ± 0.6 mM⁻¹ s⁻¹
[9]; listed as gadoquatrane
  r1-Relaxivity in Human Plasma at 37°C, 3.0 T (per Gd): 10.5 mM⁻¹ s⁻¹
  r1-Relaxivity in Human Plasma at 37°C, 3.0 T (per molecule): 41.9 mM⁻¹ s⁻¹
[10]
  Total Gd release after 21 days in human serum: no release of Gd^3+
[11]
  Viscosity at 37°C: 1.22 mPa·s
[12]
  Solubility: 1.43 mol Gd/L
[13]
  Osmolality at 37°C: 294 (iso-osmolar to blood) mosmol/kg H2O
[13]; listed as gadoquatrane
  Osmolality at 37°C: 294 mosmol/kg H2O
[14]
  Decrease of the T1 relaxation rates (R1) in zinc transmetallation assay: no Gd^3+ release
[14]; listed as gadoquatrane
  Decrease of the T1 relaxation rates (R1) in zinc transmetallation assay: no change
[15]
  In vitro uptake or metabolic degradation in hepatocytes: No in vitro uptake or metabolic degradation
[16]; rat plasma
  AUC^∞: 183 ± 11 (5.8%) μmol·h/L
  γ-AUC: 1 % of AUC^∞
[16]; rat plasma, listed as BAY 1747846
  γ-AUC: 1.2 % of AUC^∞
[16]; rat
  Clplasma: 0.55 ± 0.03 (5.8%) L/h/kg
  Vss: 0.33 ± 0.05 (14%) L/kg
[16]; rat, 3-compartment model, mean estimate ± SD (CV%)
  α t1/2: 6.3 ± 1.5 (24%) min
[16]; [22]
  β t1/2: 25 ± 1.6 (6.4%) min
  γ t1/2: 13 ± 2.9 (22%) h
[17]; human plasma, up to 200 MHz (4.7 T)
  NMRD r1-relaxivity per Gd, fold higher compared with gadobutrol, in human plasma: 2 fold
[17]; water, 20–200 MHz (0.47–4.7 T)
  NMRD r1-relaxivity per Gd, fold higher compared with gadobutrol, in water: ~ 3 fold
[18]
  CNR (tumor-to-brain) compared with gadobutrol: clearly higher CNR
[19]
  Free fraction in plasma (fraction unbound): 93%
